Laboratory results as given in publication PMC3694332 (Biopharmaceutics & drug disposition, 2009).
Read-outs that look alike come from different tables or passages of the source.

How the values were obtained:
MRP1 [1] = settings: cited from earlier work
P-gp [2] = settings: cited from earlier work; for investigated as substrate (S)/inhibitor (I): 8226/Dox, P-gp
[3] = rats, cited from earlier work
[4] = Effect of BITC co-administration on topotecan pharmacokinetics; settings: Sprague-Dawley, rat, plasma
[5] = rats; cited from earlier work
cellular GSH levels = settings: 100 μM, 2 h incubation; cited from earlier work
[6] = cited from earlier work
CaCo2 cell monolayers = settings: cited from earlier work
MRP2 = settings: cited from earlier work
MRP1 [7] = settings: cited from earlier work; remark: listed apart in the source
P-gp [8] = settings: verapamil or PSC833; Caco-2, MCF-7/ADR, MDA435/LCC6, MDA435/LCC6MDR1 cells; cited from earlier work
P-gp [9] = settings: MCF7/ADR cells, 100 μM isothiocyanate, 2 h; cited from earlier work
MRP1 [10] = settings: Panc-1 cells, 100 μM isothiocyanate, 2 h; cited from earlier work
BCRP [11] = settings: NHI-H460/MX20, BCRP; cited from earlier work
BCRP [12] = settings: FTC 10 μM, 25 μM PEITC; cited from earlier work
[13] = rat, in vivo, cited from earlier work
[14] = human, in vivo; cited from earlier work

## C[S+]([O-])CCCCN=C=S (stereo not drawn) [Sulforaphane, sulforaphane]
MRP1 [1]; MRP1 over-expressing cells
  accumulation of intracellular sulforaphane with inhibitors of MRP1: increased
P-gp [2]
  investigated as substrate (S)/inhibitor (I): Sulforaphane (S)
P-gp [2]; P-gp over-expressing cells
  accumulation of intracellular sulforaphane with inhibitors of P-gp: increased
[3]; 50 μmol oral (Table 1: 88.5 mg oral), plasma
  Cmax: 20 µM
[3]; 50 μmol oral (Table 1: 88.5 mg oral)
  Half-life: 2.23 h
[3]; 50 μmol oral (Table 1: 88.5 mg oral), listed as sulforaphane
  Half-life: about 2.2 h
[3]; 88.5 mg oral
  Tmax: 4 h

## CC[C@@]1(O)C(=O)OCc2c1cc1n(c2=O)Cc2cc3c(CN(C)C)c(O)ccc3nc2-1 [topotecan]
[4]; iv, 1 mg/kg, AUC0–∞, i.v. administration of 1 mg/kg topotecan, four rats
  AUC(0-inf): 707 ng·h/mL
[4]; po, 2 mg/kg, AUC0–720 min, topotecan alone (2 mg/kg dose)
  AUC(0-t): 182 ng·h/mL

## S=C=Nc1cccc2ccccc12 [NITC, α-naphthyl isothiocyanate]
[5]
  Nonlinear pharmacokinetics: Yes
Cellular GSH levels
  decrease of cellular GSH levels: not

## CC[C@@]1(O)C(=O)OCc2c1cc1n(c2=O)Cc2cc3c(CNC)c(O)ccc3nc2-1 [N-desmethyl topotecan]
[6]; in the plasma
  percent of N-desmethyl topotecan formed: less than 0.7%
[6]; in the urine
  percent of N-desmethyl topotecan formed: 1–4%

## S=C=NCc1ccccc1 [BITC, benzyl isothiocyanate]
CaCo2 cell monolayers
  increase in accumulation of daunomycin: 1.75 fold
Cellular GSH levels
  GSH, % of control values in untreated cells: 15.3±6.4 % of control
  decrease of cellular GSH levels: decreased

## C=CCN=C=S [Allyl isothiocyanate]
MRP1 [1]; HL60/AR, MRP1
  investigated as substrate (S)/inhibitor (I): Allyl isothiocyanate (S)

## S=C=NCCc1ccccc1 [PEITC, phenethyl isothiocyanate]
MRP2; 50 μM MK571, PEITC 1 μM
  increase of intracellular 14C accumulation by MK571: 2.5 fold
MRP2; 50 μM MK571, PEITC 5 μM
  increase of intracellular 14C accumulation by MK571: 3.5 fold
MRP2; 50 μM MK571, PEITC 10 μM
  increase of intracellular 14C accumulation by MK571: 4.5 fold
MRP2; 50 μM MK571, PEITC 50 μM
  increase of intracellular 14C accumulation by MK571: 1.8 fold
MRP2; PEITC 1 μM
  intracellular 14C lower in MDCK/MRP2 than in wild type MDCKII cells: 55%
MRP2; PEITC 5 μM
  intracellular 14C lower in MDCK/MRP2 than in wild type MDCKII cells: 14%
MRP2; PEITC 10 μM
  intracellular 14C lower in MDCK/MRP2 than in wild type MDCKII cells: 12%
MRP2; PEITC 50 μM
  intracellular 14C lower in MDCK/MRP2 than in wild type MDCKII cells: 61%
MRP1 [7]; 100 μM MK571, higher PEITC concentrations
  change of 14C tracer accumulation by MK571: did not change
MRP1 [7]; 2 h co-incubation with 100 μM MK571, PEITC 1 μM
  increase of 14C tracer accumulation by MK571: 6.8 fold
MRP1 [7]; 2 h co-incubation with 100 μM MK571, PEITC 5 μM
  increase of 14C tracer accumulation by MK571: 5.9 fold
MRP1 [7]; 2 h co-incubation with 100 μM MK571, PEITC 20 μM
  increase of 14C tracer accumulation by MK571: 1.9 fold
P-gp [8]
  accumulation of 14C-PEITC in absence and presence of P-gp inhibitor: not changed
P-gp [9]
  increase in accumulation of vinblastine: not
MRP1 [10]
  increase in accumulation of vinblastine: 2 fold
CaCo2 cell monolayers
  increase in accumulation of daunomycin: 1.85 fold
Cellular GSH levels
  GSH, % of control values in untreated cells: 10±3.5 % of control
  decrease of cellular GSH levels: decreased
BCRP [11]
  investigated as substrate (S)/inhibitor (I): Phenethyl isothiocyanate (S)
BCRP [12]
  decrease of ATP-dependent accumulation of PEITC in inside-out vesicles by FTC: 1.7 fold
P-gp [2]
  investigated as substrate (S)/inhibitor (I): Phenethyl isothiocyanate (S)
[13]; 2 umol/kg
  clearance: 11.6 mL/min/kg
[13]; iv, 66 mg/kg
  Half-life: 13.1 h (i.v.)
[13]; po, 16.3 mg/kg
  Cmax: 42.1 µM
  Tmax: 2.0 h
[13]; po
  oral bioavailability: high
[13]
  Nonlinear pharmacokinetics: Yes
[14]
  CL/F: 29.5 L/h
  Cmax: 0.928 µM
  Half-life: 4.9 h
  Tmax: 2.6 h
